{"source": "PubChem BioAssay (NCI)", "test_in_all_cases": "NCI anticancer screen, dose series, 48 h", "key": {"SF-268 CNS": {"test_system": "SF-268 CNS"}, "U251 CNS": {"test_system": "U251 CNS"}, "OVCAR-3 ovarian": {"test_system": "OVCAR-3 ovarian"}, "M14 melanoma": {"test_system": "M14 melanoma"}, "HCT-116 colon": {"test_system": "HCT-116 colon"}, "EKVX NSCLC": {"test_system": "EKVX NSCLC"}, "SW-620 colon": {"test_system": "SW-620 colon"}, "MDA-MB-435": {"test_system": "MDA-MB-435"}, "HCT-15 colon": {"test_system": "HCT-15 colon"}, "SF-539 CNS": {"test_system": "SF-539 CNS"}, "CAKI-1 renal": {"test_system": "CAKI-1 renal"}, "KM12 colon": {"test_system": "KM12 colon"}, "NCI/ADR-RES ovarian": {"test_system": "NCI/ADR-RES ovarian"}, "SNB-75 CNS": {"test_system": "SNB-75 CNS"}, "786-0 renal": {"test_system": "786-0 renal"}, "HOP-62 NSCLC": {"test_system": "HOP-62 NSCLC"}, "A498 renal": {"test_system": "A498 renal"}, "MALME-3M melanoma": {"test_system": "MALME-3M melanoma"}, "SK-MEL-2 melanoma": {"test_system": "SK-MEL-2 melanoma"}, "CCRF-CEM leukemia": {"test_system": "CCRF-CEM leukemia"}, "HT29 colon": {"test_system": "HT29 colon"}, "HS 578T breast": {"test_system": "HS 578T breast"}, "MDA-MB-231 breast": {"test_system": "MDA-MB-231 breast"}, "IGROV1 ovarian": {"test_system": "IGROV1 ovarian"}, "SK-MEL-28 melanoma": {"test_system": "SK-MEL-28 melanoma"}, "SNB-19 CNS": {"test_system": "SNB-19 CNS"}, "MCF7 breast": {"test_system": "MCF7 breast"}, "PC-3 prostate": {"test_system": "PC-3 prostate"}, "SK-MEL-5 melanoma": {"test_system": "SK-MEL-5 melanoma"}, "A549 NSCLC": {"test_system": "A549 NSCLC"}, "OVCAR-8 ovarian": {"test_system": "OVCAR-8 ovarian"}, "NCI-H23 lung": {"test_system": "NCI-H23 lung"}, "TK-10 renal": {"test_system": "TK-10 renal"}, "HL-60(TB) leukemia": {"test_system": "HL-60(TB) leukemia"}, "K-562 leukemia": {"test_system": "K-562 leukemia"}, "SN12C renal": {"test_system": "SN12C renal"}, "ACHN renal": {"test_system": "ACHN renal"}, "OVCAR-5 ovarian": {"test_system": "OVCAR-5 ovarian"}, "OVCAR-4 ovarian": {"test_system": "OVCAR-4 ovarian"}, "UACC-62 melanoma": {"test_system": "UACC-62 melanoma"}, "RXF 393 renal": {"test_system": "RXF 393 renal"}, "BT-549 breast": {"test_system": "BT-549 breast"}, "HOP-92 NSCLC": {"test_system": "HOP-92 NSCLC"}, "SF-295 CNS": {"test_system": "SF-295 CNS"}, "NCI-H460 lung": {"test_system": "NCI-H460 lung"}, "HCC-2998 colon": {"test_system": "HCC-2998 colon"}, "MDA-N": {"test_system": "MDA-N"}, "NCI-H226 lung": {"test_system": "NCI-H226 lung"}, "UO-31 renal": {"test_system": "UO-31 renal"}, "UACC-257 melanoma": {"test_system": "UACC-257 melanoma"}, "SK-OV-3 ovarian": {"test_system": "SK-OV-3 ovarian"}, "DU-145 prostate": {"test_system": "DU-145 prostate"}}, "note": "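Cells were grown in 96-well plates and exposed to each compound for 48 hours at five concentrations; endpoints were interpolated linearly between bracketing concentrations, or set to the highest concentration if not reached. TGI: concentration producing complete growth inhibition.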"}
{"smiles": "O=C1c2cccc3cccc(c23)C(=O)N1CCCNCCCCNCCCNCCCN1C(=O)c2cccc3cccc(c23)C1=O", "values": [{"measurement": "TGI", "setting": "SF-268 CNS", "result": 665, "unit": "nM"}, {"measurement": "TGI", "setting": "U251 CNS", "result": 1730, "unit": "nM"}, {"measurement": "TGI", "setting": "OVCAR-3 ovarian", "result": 2120, "unit": "nM"}, {"measurement": "TGI", "setting": "M14 melanoma", "result": 3640, "unit": "nM"}, {"measurement": "TGI", "setting": "HCT-116 colon", "result": 1570, "unit": "nM"}, {"measurement": "TGI", "setting": "EKVX NSCLC", "result": 5670, "unit": "nM"}, {"measurement": "TGI", "setting": "SW-620 colon", "result": 4350, "unit": "nM"}, {"measurement": "TGI", "setting": "MDA-MB-435", "result": 2000, "unit": "nM"}, {"measurement": "TGI", "setting": "HCT-15 colon", "result": 28100, "unit": "nM"}, {"measurement": "TGI", "setting": "SF-539 CNS", "result": 1940, "unit": "nM"}, {"measurement": "TGI", "setting": "CAKI-1 renal", "result": 17300, "unit": "nM"}, {"measurement": "TGI", "setting": "KM12 colon", "result": 1830, "unit": "nM"}, {"measurement": "TGI", "setting": "NCI/ADR-RES ovarian", "result": 49600, "unit": "nM"}, {"measurement": "TGI", "setting": "SNB-75 CNS", "result": 1460, "unit": "nM"}, {"measurement": "TGI", "setting": "786-0 renal", "result": 1360, "unit": "nM"}, {"measurement": "TGI", "setting": "HOP-62 NSCLC", "result": 3600, "unit": "nM"}, {"measurement": "TGI", "setting": "A498 renal", "result": 2470, "unit": "nM"}, {"measurement": "TGI", "setting": "MALME-3M melanoma", "result": 1250, "unit": "nM"}, {"measurement": "TGI", "setting": "SK-MEL-2 melanoma", "result": 2750, "unit": "nM"}, {"measurement": "TGI", "setting": "CCRF-CEM leukemia", "result": "> 100000", "unit": "nM"}, {"measurement": "TGI", "setting": "HT29 colon", "result": 1150, "unit": "nM"}, {"measurement": "TGI", "setting": "HS 578T breast", "result": 2110, "unit": "nM"}, {"measurement": "TGI", "setting": "MDA-MB-231 breast", "result": 2360, "unit": "nM"}, {"measurement": "TGI", "setting": "IGROV1 ovarian", "result": 3410, "unit": "nM"}, {"measurement": "TGI", "setting": "SK-MEL-28 melanoma", "result": 2950, "unit": "nM"}, {"measurement": "TGI", "setting": "SNB-19 CNS", "result": 1580, "unit": "nM"}, {"measurement": "TGI", "setting": "MCF7 breast", "result": 599, "unit": "nM"}, {"measurement": "TGI", "setting": "PC-3 prostate", "result": 1760, "unit": "nM"}, {"measurement": "TGI", "setting": "SK-MEL-5 melanoma", "result": 8350, "unit": "nM"}, {"measurement": "TGI", "setting": "A549 NSCLC", "result": 1390, "unit": "nM"}, {"measurement": "TGI", "setting": "OVCAR-8 ovarian", "result": 3990, "unit": "nM"}, {"measurement": "TGI", "setting": "NCI-H23 lung", "result": 1720, "unit": "nM"}, {"measurement": "TGI", "setting": "TK-10 renal", "result": 12100, "unit": "nM"}, {"measurement": "TGI", "setting": "HL-60(TB) leukemia", "result": 1540, "unit": "nM"}, {"measurement": "TGI", "setting": "K-562 leukemia", "result": 3790, "unit": "nM"}, {"measurement": "TGI", "setting": "SN12C renal", "result": 1800, "unit": "nM"}, {"measurement": "TGI", "setting": "ACHN renal", "result": 7430, "unit": "nM"}, {"measurement": "TGI", "setting": "OVCAR-5 ovarian", "result": 2760, "unit": "nM"}, {"measurement": "TGI", "setting": "OVCAR-4 ovarian", "result": 1760, "unit": "nM"}, {"measurement": "TGI", "setting": "UACC-62 melanoma", "result": 1600, "unit": "nM"}, {"measurement": "TGI", "setting": "RXF 393 renal", "result": 1440, "unit": "nM"}, {"measurement": "TGI", "setting": "BT-549 breast", "result": 3300, "unit": "nM"}, {"measurement": "TGI", "setting": "HOP-92 NSCLC", "result": 2370, "unit": "nM"}, {"measurement": "TGI", "setting": "SF-295 CNS", "result": 22700, "unit": "nM"}, {"measurement": "TGI", "setting": "NCI-H460 lung", "result": 1420, "unit": "nM"}, {"measurement": "TGI", "setting": "HCC-2998 colon", "result": 1860, "unit": "nM"}, {"measurement": "TGI", "setting": "MDA-N", "result": 2110, "unit": "nM"}, {"measurement": "TGI", "setting": "NCI-H226 lung", "result": 2150, "unit": "nM"}, {"measurement": "TGI", "setting": "UO-31 renal", "result": 18600, "unit": "nM"}, {"measurement": "TGI", "setting": "UACC-257 melanoma", "result": 3060, "unit": "nM"}, {"measurement": "TGI", "setting": "SK-OV-3 ovarian", "result": 3420, "unit": "nM"}, {"measurement": "TGI", "setting": "DU-145 prostate", "result": 1530, "unit": "nM"}]}
